ChEMBL document CHEMBL2029206, “Design, synthesis and biological evaluation of potent NAD+-dependent DNA ligase inhibitors as potential antibacterial agents. Part 2: 4-amino-pyrido[2,3-d]pyrimidin-5(8H)-ones” (Bioorg Med Chem Lett, 2012)
≈ marks a conversion by molar mass, not a printed value. Calls of active or inactive are those of the source. No cut-off for these calls is given here.

What was measured:
Staphylococcus aureus = assay: Antibacterial activity against Staphylococcus aureus ATCC 29213; format: functional
Streptococcus pneumoniae = assay: Antibacterial activity against Streptococcus pneumoniae ATCC 10015; format: functional
Haemophilus influenzae = assay: Antibacterial activity against Haemophilus influenzae ATCC 51907; format: functional
Escherichia coli = assay: Antibacterial activity against wild-type Escherichia coli; format: functional, organism-based
[1] = Inhibition of human ATP-dependent DNA ligase
[2] = Inhibition of Escherichia coli NAD+dependent DNA ligase

Structure (SMILES)	MIC (Staphylococcus aureus)	MIC (Streptococcus pneumoniae)	MIC (Haemophilus influenzae)	Activity (Escherichia coli)	IC50 [1]	IC50 [2]
C[C@H]1CC[C@H](Oc2nc(N)c3c(=O)ccn([C@H]4CC(C(=O)O)C[C@@H]4O)c3n2)CC1 (stereo partly specified)	> 100 µM	83.3 µM (≈ 33.5 µg/mL)	> 100 µM	inactive	> 55000 nM	51 nM
C[C@H]1CCCC[C@H]1Oc1nc(N)c2c(=O)ccn(CC(O)CF)c2n1 (relative stereo)	> 100 µM	100 µM (≈ 35 µg/mL)	–	inactive	> 55000 nM	28 nM
C[C@H]1CC[C@H](Oc2nc(N)c3c(=O)ccn(Cc4ccc(C(=O)O)s4)c3n2)CC1	> 100 µM	83.3 µM (≈ 34.5 µg/mL)	25 µM (≈ 10.4 µg/mL)	inactive	> 55000 nM	490 nM
C[C@@H]1CCCC[C@@H]1Oc1nc(N)c2c(=O)ccn(CCO)c2n1 (relative stereo)	–	–	–	inactive	> 55000 nM	57 nM
C[C@H]1CCCC[C@H]1Oc1nc(N)c2c(=O)ccn(Cc3ccc(C(=O)O)cc3)c2n1 (relative stereo)	> 100 µM	> 100 µM	–	inactive	> 55000 nM	19 nM
C[C@H]1CCCC[C@H]1Oc1nc(N)c2c(=O)ccn(Cc3cn[nH]c3)c2n1 (relative stereo)	> 100 µM	> 100 µM	–	inactive	> 55000 nM	36 nM
Nc1nc(SC2CCCC2)nc2c1c(=O)ccn2[C@H]1CCC[C@@H]1O (relative stereo)	25 µM (≈ 8.66 µg/mL)	> 100 µM	> 100 µM	inactive	> 55000 nM	63 nM
C[C@H]1CCCC[C@H]1Oc1nc(N)c2c(=O)ccn(CCC#N)c2n1 (relative stereo)	> 100 µM	> 100 µM	–	inactive	> 55000 nM	36 nM
CC(C)Oc1nc(N)c2c(=O)ccn(CCO)c2n1	–	–	–	inactive	> 55000 nM	1060 nM
C[C@H]1CCCC[C@H]1Oc1nc(N)c2c(=O)ccn([C@@H]3CC[C@@H]4C[C@H]3OC4=O)c2n1	> 100 µM	> 100 µM	–	inactive	> 55000 nM	28 nM
CC1CCC(Oc2nc(N)c3c(=O)ccn([C@H]4CCC[C@@H]4O)c3n2)C(C)C1 (relative stereo)	> 100 µM	16.7 µM (≈ 6.22 µg/mL)	50 µM (≈ 18.6 µg/mL)	inactive	> 55000 nM	170 nM
Nc1nc(OC2CCCC2)nc2c1c(=O)ccn2CCO	–	–	–	inactive	> 55000 nM	510 nM
Nc1nc(OC2CCC(Cl)CC2)nc2c1c(=O)ccn2[C@H]1CCC[C@@H]1O (relative stereo)	50 µM (≈ 18.9 µg/mL)	6.3 µM (≈ 2.39 µg/mL)	75 µM (≈ 28.4 µg/mL)	inactive	> 55000 nM	41 nM
Nc1nc(SC2CCCC2)nc2c1c(=O)ccn2CCO	–	–	–	inactive	> 55000 nM	350 nM
C[C@H]1CCCC[C@H]1Oc1nc(N)c2c(=O)ccn([C@@H]3CCCC[C@H]3O)c2n1	100 µM (≈ 37.2 µg/mL)	75 µM (≈ 27.9 µg/mL)	–	inactive	> 55000 nM	110 nM
Nc1nc(OC2CCC(C(F)(F)F)CC2)nc2c1c(=O)ccn2[C@H]1CCC[C@@H]1O (relative stereo)	50 µM (≈ 20.6 µg/mL)	8.4 µM (≈ 3.46 µg/mL)	> 100 µM	inactive	> 55000 nM	350 nM

Structure (SMILES)	MIC (Staphylococcus aureus)	MIC (Streptococcus pneumoniae)	MIC (Haemophilus influenzae)	Activity (Escherichia coli)	IC50 [1]	IC50 [2]
Nc1nc(NC2CCCC2)nc2c1c(=O)ccn2CCO	–	–	–	inactive	> 55000 nM	> 10000 nM
Nc1nc(OC(CF)CF)nc2c1c(=O)ccn2CCO	–	–	–	inactive	> 55000 nM	310 nM
C[C@H]1CCCC[C@H]1Oc1nc(N)c2c(=O)ccn(CC(O)CO)c2n1 (relative stereo)	> 100 µM	> 100 µM	–	inactive	> 55000 nM	79 nM
C[C@H]1CCCC[C@H]1Oc1nc(N)c2c(=O)ccn(CC3C[C@@H](O)[C@@H](O)C3)c2n1 (stereo partly specified)	> 100 µM	> 100 µM	–	inactive	> 55000 nM	68 nM
C[C@H]1CCCC[C@H]1Oc1nc(N)c2c(=O)ccn([C@@H]3COC[C@H]3O)c2n1	100 µM (≈ 36 µg/mL)	100 µM (≈ 36 µg/mL)	–	inactive	> 55000 nM	38 nM
C[C@H]1CC[C@H](Oc2nc(N)c3c(=O)ccn(CCO)c3n2)CC1	–	–	–	inactive	> 55000 nM	420 nM
C[C@H]1CC[C@H](Oc2nc(N)c3c(=O)ccn(C4[C@@H](O)CC[C@@H]4O)c3n2)CC1	25 µM (≈ 9.36 µg/mL)	5.2 µM (≈ 1.95 µg/mL)	100 µM (≈ 37.4 µg/mL)	inactive	> 55000 nM	76 nM
C[C@H]1CC[C@H](Oc2nc(N)c3c(=O)ccn([C@H]4CC[C@H](O)[C@@H]4O)c3n2)CC1	25 µM (≈ 9.36 µg/mL)	4.2 µM (≈ 1.57 µg/mL)	> 100 µM	inactive	> 55000 nM	225 nM
C[C@H]1CC[C@H](Oc2nc(N)c3c(=O)ccn([C@H]4CC(C(N)=O)C[C@@H]4O)c3n2)CC1 (stereo partly specified)	> 100 µM	20.8 µM (≈ 8.35 µg/mL)	100 µM (≈ 40.1 µg/mL)	inactive	> 55000 nM	48 nM
C[C@H]1CCCC[C@H]1Oc1nc(N)c2c(=O)ccn(CC#N)c2n1 (relative stereo)	> 100 µM	> 100 µM	–	inactive	> 55000 nM	20 nM
C[C@H]1CCCC[C@H]1Oc1nc(N)c2c(=O)ccn([C@@H]3CCC[C@H]3O)c2n1	100 µM (≈ 35.8 µg/mL)	50 µM (≈ 17.9 µg/mL)	–	inactive	> 55000 nM	40 nM
C[C@H]1CC[C@H](Oc2nc(N)c3c(=O)ccn([C@H]4CCC[C@@H]4O)c3n2)CC1	18.8 µM (≈ 6.74 µg/mL)	6.3 µM (≈ 2.26 µg/mL)	75 µM (≈ 26.9 µg/mL)	inactive	> 55000 nM	39 nM
C[C@H]1CC[C@H](Oc2nc(N)c3c(=O)ccn([C@@H]4CCC[C@H]4O)c3n2)CC1	37.5 µM (≈ 13.4 µg/mL)	3.1 µM (≈ 1.11 µg/mL)	100 µM (≈ 35.8 µg/mL)	inactive	> 55000 nM	190 nM
Nc1nc(OC2CCC3(CC2)OCCO3)nc2c1c(=O)ccn2[C@H]1CCC[C@@H]1O (relative stereo)	> 100 µM	50 µM (≈ 20.1 µg/mL)	> 100 µM	inactive	> 55000 nM	90 nM
C[C@H]1CCCC[C@H]1Oc1nc(N)c2c(=O)ccn(CC3CC=CC3)c2n1 (relative stereo)	> 100 µM	> 100 µM	–	inactive	> 55000 nM	20 nM
Nc1nc(OCCF)nc2c1c(=O)ccn2CCO	–	–	–	inactive	> 55000 nM	1950 nM
